Data as given in patent publication US20140335052A1, “COMBINATION THERAPY FOR TREATING HCV INFECTION IN AN HCV-HIV COINFECTED PATIENT POPULATION” (BOEHRINGER INGELHEIM INTERNATIONAL GMBH, priority 2012, published 2014).
Marks after values point to notes of the source that are not given here.

Tests used:
HCV GT1 = HCV GT1 mono-infected TN patients; 240 mg QD FDV plus PegIFN/RBV; study 1220.5; cited from earlier work
[1] = Phase III trial of FDV plus PegIFN/RBV in HCV/HIV coinfected patients: safety (adverse events, HIV RNA suppression); type: in vivo, human
Protocol: (§1) Safety and Efficacy of 120 mg and 240 mg Compound (1) Once Daily in Combination With Pegylated Interferon Alpha 2a (PegIFN) and Ribavirin (RBV) for Treatment of Chronic Hepatitis C (HCV) Genotype 1 Infection in HIV/HCV Co-infected Patients. A Multinational, Randomised, Parallel Group, Open-label Trial.
(§2) The aim of this trial is to evaluate the efficacy and the safety of Compound (1) given for 12 or 24 weeks in combination with PegIFN/RBV given for 24 or up to 48 weeks in HCV treatment-naive or relapsers patients coinfected with HIV. Patients who achieve reduction of HCV viral load according to Early Treatment Success (ETS) criteria will be randomized 1:1 to stop triple therapy at 24 weeks, or continue PegIFN/RBV for 48 week treatment duration. Patients without ETS continue PegIFN/RBV for 48 week treatment duration.
(§3) Individuals co-infected with HCV/HIV who were HCV treatment-naïve (TN) or relapsed after previous HCV therapy were randomized to receive FDV 120 or 240 mg QD for 12 or 24 weeks, in combination with PegIFN (180 μg once weekly) and weight-based RBV for 24 or 48 weeks (response-guided). Patients on efavirenz- or PI-based antiretroviral therapy (ART) were allocated to receive FDV 240 mg or 120 mg QD, respectively; those receiving other ART or no ART were randomized to either FDV dose. Interim data remains blinded for FDV dose. Week 12 interim data are presented.
HCV RNA was BLD at Week 4/Week 12 in 64%/64% of patients not on ART, and in 63%/85% of patients receiving ART. […] For example, in a prior study in HCV GT1 mono-infected TN patients treated with 240 mg QD FDV plus PegIFN/RBV (Boehringer Ingelheim, data on file, Clinical Trial Report for study 1220.5, U12-2567-01), HCV RNA was BLQ at week 4 and BLD at week 12 in 94% (133/142) and 93% (132/142) of patients, respectively. […] These preliminary on-treatment efficacy data are promising given that a) 17% of the coinfected patients had cirrhosis (patients with cirrhosis were not included in the 1220.5 study), b) preliminary efficacy data in HCV/HIV coinfected represent sponsor-blinded results of both FDV dose groups (e.g., 120 mg QD and 240 mg QD FDV), and c) the HCV GT1/HIV co-infected patient population is historically a more difficult-to-treat patient population with substantially lower HCV cure rates with the current standard of care treatment of pegIFN and RBV when compared to HCV GT1 monoinfected patients. The most frequent adverse events (AEs) were those known for PegIFN/RBV treatment: nausea (37%), fatigue (33%) and diarrhea (27%). Serious AEs were reported in 32 (10%) patients (including 2 deaths; none considered related to study medications). To date, 18 patients discontinued early due to AEs.

HCV genotype 1 = assay: Phase III trial of FDV plus PegIFN/RBV in HCV/HIV coinfected patients: virologic response (plasma HCV RNA), Week 12 interim data; type: in vivo, human; conditions: for Virologic response Week 4 BLD / Virologic response Week 12 BLD: HCV RNA <15 IU/mL, not detected; for Virologic response Week 4 BLQ / Virologic response Week 12 BLQ: HCV RNA <25 IU/mL; for Virologic response Week 4 BLQ: FDV 120 or 240 mg QD (dose blinded) plus PegIFN/RBV; for ETS (Week 4 BLQ and Week 8 BLD): early treatment success
Protocol: For the clinical trial described below, the Compound (1) drug product will be administered as a softgel capsule lipid-based formulation containing Compound (1) sodium salt. All references to “Compound (1)” in the below clinical study is the sodium salt form.
as §1, §2
• Sustained Virological Response (SVR): Plasma Hepatitis C Virus (HCV) Ribonucleic Acid (RNA) level <25 IU/mL, undetected at week 12 after the planned treatment duration.
HCV RNA level<25 IU/mL (undetected) 24 weeks after the originally planned treatment duration. • Early Treatment Success (ETS): Plasma HCV RNA level<25 IU/mL (detected or undetected) at Week 4 and HCV RNA<25 IU/mL, undetected at Week 8 and have not discontinued any study drug prior to week 24. • Alanine Aminotransferase normalisation: Alanine Aminotransferase in normal range 24 weeks after the end of the originally planned treatment duration
Inclusion criteria (selected): • 1. Chronic hepatitis C (HCV) genotype 1 infection • 2. Chronic Human Immunodeficiency Virus (HIV)-1 infection • 3. HCV treatment naive or HCV treatment experienced but only relapsers • 4. Age 18 to 70 years • 5. […] HCV viral load >1.000 IU/mL • 7. No AIDS-defining illness during 6 months prior to screening Exclusion criteria (selected): • 1. HCV infection of mixed genotype (1/2, 1/3, 1/4) • 2. Evidence of acute or chronic liver […] • 3. Hepatitis B virus (HBV) infection with presence of HBs-Ag • 4. Active malignancy or history or malignancy within the last 5 years • 5. Received concomitant systemic antiviral (other than antiretroviral), hematopoietic growth factor or immunomodulatory treatment in 28 days prior enrollment. • 6. Decompensated liver disease, as evidenced by ascites, hepatic encephalopathy, esophageal variceal bleeding, and/or laboratory values that add up to >/=7 points according tho the Child-Turcotte-Pugh classification • 7. Hemoglobin </=11 g/dL for women and </=12 g/dL for men • 8. Active autoimmune disease, including autoimmune hepatitis • 9. Known hypersensitivity to any ingredient of the study drugs
as §3

[2] = HCV/HIV coinfected patients (308 treated), interim
[3] = HCV/HIV co-infected TN patient population, interim data restated in text, FDV plus PegIFN/RBV
[4] = Relapsers (N = 69), FDV plus PegIFN/RBV
[5] = TN patients (N = 239), FDV plus PegIFN/RBV
[6] = Total (N = 308), FDV plus PegIFN/RBV
[7] = patients not on ART, FDV plus PegIFN/RBV
[8] = patients receiving ART, FDV plus PegIFN/RBV

C=C[C@@H]1C[C@]1(NC(=O)[C@@H]1C[C@@H](Oc2cc(-c3csc(C(=O)NC(C)C)n3)nc3c(Br)c(OC)ccc23)CN1C(=O)[C@@H](NC(=O)OC1CCCC1)C(C)(C)C)C(=O)O [FDV, 1-{[4-[8-Bromo-2-(2-isopropylcarbamoyl-thiazol-4-yl)-7-methoxy-quinolin-4-yloxy]-1-(R)-(2-cyclopentyloxycarbonylamino-3,3-(S)-dimethyl-butyryl)-pyrrolidine-(S)-2-carbonyl]-amino}-2-(S)-vinyl-cyclopropane-(R)-carboxylic acid]
HCV RNA BLD at week 12, number of patients of total (HCV GT1): 132/142
HCV RNA BLD at week 12, patients (HCV GT1): 93%
HCV RNA BLQ at week 4, number of patients of total (HCV GT1): 133/142
HCV RNA BLQ at week 4, patients (HCV GT1): 94%
Adverse event: diarrhea [1, 2]: 27%
Adverse event: fatigue [1, 2]: 33%
Adverse event: nausea [1, 2]: 37%
Serious AEs reported, number of patients [1, 2]: 32 patients
Serious AEs reported, share of patients [1, 2]: 10%
Deaths (among serious AEs; none considered related to study medications) ([1]; HCV/HIV coinfected patients, interim): 2 deaths
Patients discontinued early due to AEs ([1]; HCV/HIV coinfected patients, to date (interim)): 18 patients
Loss of HIV RNA suppression ([1]; patients on ART): No patient on ART experienced loss of HIV RNA suppression
Early virologic response rates (HCV genotype 1; HCV GT1 patients coinfected with HIV, Weeks 4 and 12, FDV plus PegIFN/RBV, interim analysis): high early virologic response rates
HCV RNA BLD at week 12, patients (HCV genotype 1; [3]): 82%
HCV RNA BLQ at week 4, patients (HCV genotype 1; [3]): 80%
Virologic response Week 4 BLD (HCV genotype 1; [4]): 51 (74) n (%)
Virologic response Week 12 BLD (HCV genotype 1; [4]): 63 (91) n (%)
Virologic response Week 4 BLQ (HCV genotype 1; Relapsers (N = 69)): 63 (91)^b n (%)
Virologic response Week 12 BLQ (HCV genotype 1; [4]): 64 (93)^d n (%)
ETS (Week 4 BLQ and Week 8 BLD) (HCV genotype 1; [4]): 61 (88) n (%)
Virologic response Week 4 BLD (HCV genotype 1; [5]): 143 (60) n (%)
Virologic response Week 12 BLD (HCV genotype 1; [5]): 195 (82) n (%)
Virologic response Week 4 BLQ (HCV genotype 1; TN patients (N = 239)): 191 (80)^a n (%)
Virologic response Week 12 BLQ (HCV genotype 1; [5]): 206 (86)^c n (%)
ETS (Week 4 BLQ and Week 8 BLD) (HCV genotype 1; [5]): 184 (77)^e n (%)
Virologic response Week 4 BLD (HCV genotype 1; [6]): 194 (63) n (%)
Virologic response Week 12 BLD (HCV genotype 1; [6]): 258 (84) n (%)
Virologic response Week 4 BLQ (HCV genotype 1; Total (N = 308)): 254 (82) n (%)
Virologic response Week 12 BLQ (HCV genotype 1; [6]): 270 (88) n (%)
ETS (Week 4 BLQ and Week 8 BLD) (HCV genotype 1; [6]): 245 (80) n (%)
HCV RNA BLD at Week 4, patients (HCV genotype 1; [7]): 64%
HCV RNA BLD at week 12, patients (HCV genotype 1; [7]): 64%
HCV RNA BLD at Week 4, patients (HCV genotype 1; [8]): 63%
HCV RNA BLD at week 12, patients (HCV genotype 1; [8]): 85%
